Article PMC5218480 (PLoS ONE, 2017)

Test system: MV-4-11 cells
Assay: Gene expression microarray analysis (Affymetrix PrimeView) and GSEA
Assay type: cell-based, human
Design: RFU PODN (11730768_x_at) / Fold change /veh PODN (11730768_x_at) / RFU LINC00158 (11744669_a_at) / Fold change /veh LINC00158 (11744669_a_at) / RFU DUSP10 (11751237_a_at) / Fold change /veh DUSP10 (11751237_a_at) / RFU ID3 (11757404_x_at) / Fold change /veh ID3 (11757404_x_at) / RFU PLEKHG5 (11737974_s_at) / Fold change /veh PLEKHG5 (11737974_s_at) / RFU LRRC4B (11730491_at) / Fold change /veh LRRC4B (11730491_at) / RFU GIMAP4 (11747438_a_at) / Fold change /veh GIMAP4 (11747438_a_at) / RFU KRT8 (11758183_x_at) / Fold change /veh KRT8 (11758183_x_at) / RFU CNN1 (11734310_a_at) / Fold change /veh CNN1 (11734310_a_at) / RFU VPS37D (11726825_at) / Fold change /veh VPS37D (11726825_at) / RFU C10orf10 (11716522_x_at) / Fold change /veh C10orf10 (11716522_x_at) / RFU KIR2DL2 /// KIR2DL4 /// KIR2DL5A /// KIR2DL5B /// KIR2DS1 /// KIR2DS2 /// KIR2DS3 /// KIR2DS4 /// KIR3DL3 /// KIR3DL3 /// KIR3DS1 (11738374_at) / Fold change /veh KIR2DL2 /// KIR2DL4 /// KIR2DL5A /// KIR2DL5B /// KIR2DS1 /// KIR2DS2 /// KIR2DS3 /// KIR2DS4 /// KIR3DL3 /// KIR3DL3 /// KIR3DS1 (11738374_at) / RFU C1QL1 (11718748_at) / Fold change /veh C1QL1 (11718748_at) / RFU TMPRSS4 (11747572_a_at) / Fold change /veh TMPRSS4 (11747572_a_at) / RFU HAMP (11756126_x_at) / Fold change /veh HAMP (11756126_x_at) / RFU RNFT2 (11725882_a_at) / Fold change /veh RNFT2 (11725882_a_at) / RFU NR4A2 (11747474_a_at) / Fold change /veh NR4A2 (11747474_a_at) / RFU ABCC12 (11746883_a_at) / Fold change /veh ABCC12 (11746883_a_at) / RFU TMEM136 (11760407_x_at) / Fold change /veh TMEM136 (11760407_x_at) / RFU CLDN22 /// WWC2 (11732394_at) / Fold change /veh CLDN22 /// WWC2 (11732394_at) / RFU HLA-DPB1 (11760878_x_at) / Fold change /veh HLA-DPB1 (11760878_x_at) / RFU SPINT1 (11716480_a_at) / Fold change /veh SPINT1 (11716480_a_at) / RFU GAP43 (11754022_s_at) / Fold change /veh GAP43 (11754022_s_at) / RFU A4GNT (11735810_at) / Fold change /veh A4GNT (11735810_at) / RFU PRB3 (11715151_x_at) / Fold change /veh PRB3 (11715151_x_at) / RFU TUBB4B (11761932_at) / Fold change /veh TUBB4B (11761932_at) / RFU CAPN14 (11732068_a_at) / Fold change /veh CAPN14 (11732068_a_at) / RFU TMCC2 (11721928_a_at) / Fold change /veh TMCC2 (11721928_a_at) / RFU IRGQ (11745062_a_at) / Fold change /veh IRGQ (11745062_a_at) / RFU FAM174B (11720279_a_at) / Fold change /veh FAM174B (11720279_a_at) / RFU TMPRSS4 (11748680_a_at) / Fold change /veh TMPRSS4 (11748680_a_at) / RFU FAM212B (11763350_a_at) / Fold change /veh FAM212B (11763350_a_at) / RFU PLEKHG5 (11743358_a_at) / Fold change /veh PLEKHG5 (11743358_a_at) / RFU ZSCAN30 (11745921_a_at) / Fold change /veh ZSCAN30 (11745921_a_at) / RFU CMKLR1 (11741424_a_at) / Fold change /veh CMKLR1 (11741424_a_at) / RFU LOC101060620 /// MAPK8IP1 (11723275_at) / Fold change /veh LOC101060620 /// MAPK8IP1 (11723275_at) / RFU SPTSSB (11747773_x_at) / Fold change /veh SPTSSB (11747773_x_at) / RFU PRSS12 (11739890_at) / Fold change /veh PRSS12 (11739890_at) / RFU BIN1 (11741810_x_at) / Fold change /veh BIN1 (11741810_x_at) / RFU WNT11 (11732464_a_at) / Fold change /veh WNT11 (11732464_a_at) / RFU C10orf10 (11716521_a_at) / Fold change /veh C10orf10 (11716521_a_at) / RFU C5orf56 (11738089_at) / Fold change /veh C5orf56 (11738089_at) / RFU CYB561 (11721691_x_at) / Fold change /veh CYB561 (11721691_x_at) / RFU ANKRD19P (11752326_a_at) / Fold change /veh ANKRD19P (11752326_a_at) / RFU OR2T12 /// OR2T33 /// OR2T8 (11738714_s_at) / Fold change /veh OR2T12 /// OR2T33 /// OR2T8 (11738714_s_at) / RFU VCAN (11748164_a_at) / Fold change /veh VCAN (11748164_a_at) / RFU JSRP1 (11732532_at) / Fold change /veh JSRP1 (11732532_at) / RFU KRTAP10-11 (11738290_x_at) / Fold change /veh KRTAP10-11 (11738290_x_at) / RFU MYO3A (11730013_a_at) / Fold change /veh MYO3A (11730013_a_at) / RFU EBF3 (11725865_a_at) / Fold change /veh EBF3 (11725865_a_at) / RFU CAMK2N1 (11719241_x_at) / Fold change /veh CAMK2N1 (11719241_x_at) / RFU C5orf56 (11738088_a_at) / Fold change /veh C5orf56 (11738088_a_at) / RFU OLFML3 (11715873_a_at) / Fold change /veh OLFML3 (11715873_a_at) / RFU LOC100653217 /// NTM (11731650_a_at) / Fold change /veh LOC100653217 /// NTM (11731650_a_at) / RFU MAPK11 (11762145_a_at) / Fold change /veh MAPK11 (11762145_a_at) / RFU FIZ1 (11724087_x_at) / Fold change /veh FIZ1 (11724087_x_at) / RFU OASL (11726364_x_at) / Fold change /veh OASL (11726364_x_at) / RFU SOX15 (11748057_x_at) / Fold change /veh SOX15 (11748057_x_at) / RFU CD79A (11719716_a_at) / Fold change /veh CD79A (11719716_a_at) / RFU HIST1H1D (11736915_at) / Fold change /veh HIST1H1D (11736915_at) / RFU CASKIN2 (11723855_a_at) / Fold change /veh CASKIN2 (11723855_a_at) / RFU LOC730098 (11760151_x_at) / Fold change /veh LOC730098 (11760151_x_at) / RFU OR4N2 (11742367_at) / Fold change /veh OR4N2 (11742367_at) / RFU PRRT2 (11749266_a_at) / Fold change /veh PRRT2 (11749266_a_at) / RFU SNX32 (11753110_a_at) / Fold change /veh SNX32 (11753110_a_at) / RFU CDHR5 (11726645_a_at) / Fold change /veh CDHR5 (11726645_a_at) / RFU RCAN1 (11760418_a_at) / Fold change /veh RCAN1 (11760418_a_at) / RFU FAM167A (11723789_a_at) / Fold change /veh FAM167A (11723789_a_at) / RFU FAM26E (11764081_at) / Fold change /veh FAM26E (11764081_at) / RFU ISYNA1 (11749810_s_at) / Fold change /veh ISYNA1 (11749810_s_at) / RFU ACY1 (11761880_at) / Fold change /veh ACY1 (11761880_at) / RFU 11764098_at / Fold change /veh 11764098_at / RFU SAMD14 (11745864_x_at) / Fold change /veh SAMD14 (11745864_x_at) / RFU NPB (11741838_a_at) / Fold change /veh NPB (11741838_a_at) / RFU TMPRSS6 (11731388_a_at) / Fold change /veh TMPRSS6 (11731388_a_at) / RFU KRTAP10-2 (11738614_at) / Fold change /veh KRTAP10-2 (11738614_at) / RFU ARHGAP8 /// PRR5-ARHGAP8 (11727945_x_at) / Fold change /veh ARHGAP8 /// PRR5-ARHGAP8 (11727945_x_at) / RFU KRTAP5-7 /// NADSYN1 (11734609_at) / Fold change /veh KRTAP5-7 /// NADSYN1 (11734609_at) / RFU RASL12 (11751679_a_at) / Fold change /veh RASL12 (11751679_a_at) / RFU CDKN2B (11736163_a_at) / Fold change /veh CDKN2B (11736163_a_at) / RFU PRF1 (11729649_at) / Fold change /veh PRF1 (11729649_at) / RFU, ZNF638 /// ZNF638-IT1 / Fold change vs veh, ZNF638 /// ZNF638-IT1 / RFU, PANK3 / Fold change vs veh, PANK3 / RFU, SH3YL1 / Fold change vs veh, SH3YL1 / RFU, ZEB2 / Fold change vs veh, ZEB2 / RFU, NRIP1 / Fold change vs veh, NRIP1 / RFU, PTTG1IP / Fold change vs veh, PTTG1IP / RFU, CAPN2 / Fold change vs veh, CAPN2 / RFU, MED14 / Fold change vs veh, MED14 / RFU, SNORA58 / Fold change vs veh, SNORA58 / RFU, C1orf63 / Fold change vs veh, C1orf63 / RFU, LRRFIP1 / Fold change vs veh, LRRFIP1 / RFU, NDUFAF7 / Fold change vs veh, NDUFAF7 / RFU, SLC12A2 / Fold change vs veh, SLC12A2 / RFU, IBTK / Fold change vs veh, IBTK / RFU, ESF1 / Fold change vs veh, ESF1 / Fold change vs veh, TMEM50B / RFU, TAOK1 / Fold change vs veh, TAOK1 / RFU, ACBD3 / Fold change vs veh, ACBD3 / RFU, TMA16 / Fold change vs veh, TMA16 / RFU, RWDD3 / Fold change vs veh, RWDD3 / RFU, BCAT1 / Fold change vs veh, BCAT1 / RFU, EDEM3 / Fold change vs veh, EDEM3 / RFU, TMEM33 / Fold change vs veh, TMEM33 / RFU, WDR75 / Fold change vs veh, WDR75 / RFU, AHCTF1 / Fold change vs veh, AHCTF1 / RFU, TFRC / Fold change vs veh, TFRC / RFU, ZDHHC17 / Fold change vs veh, ZDHHC17 / RFU, NOM1 / Fold change vs veh, NOM1 / RFU, ARL8B / Fold change vs veh, ARL8B / RFU, ZBTB11 / Fold change vs veh, ZBTB11 / RFU, TAMM41 / Fold change vs veh, TAMM41 / RFU, KIAA1704 /// LOC100996395 / Fold change vs veh, KIAA1704 /// LOC100996395 / RFU, ING1 / Fold change vs veh, ING1 / RFU, TRMT61B / Fold change vs veh, TRMT61B / RFU, FUBP3 / Fold change vs veh, FUBP3 / RFU, TP53 / Fold change vs veh, TP53 / RFU, TNKS2 / Fold change vs veh, TNKS2 / RFU, ZFP14 / Fold change vs veh, ZFP14 / RFU, ACTR2 / Fold change vs veh, ACTR2 / RFU, PPP3R1 / Fold change vs veh, PPP3R1 / RFU, PIK3R1 / Fold change vs veh, PIK3R1 / RFU, HNRNPA1 / Fold change vs veh, HNRNPA1 / RFU, RNF170 / Fold change vs veh, RNF170 / RFU, ZNF28 / Fold change vs veh, ZNF28 / RFU, RNGTT / Fold change vs veh, RNGTT / RFU, OGT / Fold change vs veh, OGT / RFU, BRD1 / Fold change vs veh, BRD1 / RFU, MARS / Fold change vs veh, MARS / RFU, ZNF655 / Fold change vs veh, ZNF655 / RFU, FAHD1 / Fold change vs veh, FAHD1 / RFU, BDP1 / Fold change vs veh, BDP1 / RFU, LRRCC1 / Fold change vs veh, LRRCC1 / RFU, ARID1A / Fold change vs veh, ARID1A / RFU, ZNF146 / Fold change vs veh, ZNF146 / RFU, ZNF330 / Fold change vs veh, ZNF330 / RFU, GPN3 / Fold change vs veh, GPN3 / RFU, C9orf123 / Fold change vs veh, C9orf123 / RFU, N4BP2L2 / Fold change vs veh, N4BP2L2 / RFU, ARFIP1 / Fold change vs veh, ARFIP1 / RFU, FAM179B / Fold change vs veh, FAM179B / RFU, BCL10 / Fold change vs veh, BCL10 / RFU, UHRF1BP1L / Fold change vs veh, UHRF1BP1L / RFU, BET1 / Fold change vs veh, BET1 / RFU, CNOT2 / Fold change vs veh, CNOT2 / RFU, ZNF268 / Fold change vs veh, ZNF268 / Fold change vs veh, ZNF507 / RFU, DGCR2 / Fold change vs veh, DGCR2 / RFU, WDSUB1 / Fold change vs veh, WDSUB1 / Fold change vs veh, HSP90B1 /// MIR3652 / RFU, ADSS / Fold change vs veh, ADSS / RFU, GK / Fold change vs veh, GK / RFU, ZNF148 / Fold change vs veh, ZNF148 / RFU, TAF9 / Fold change vs veh, TAF9 / RFU, SLC1A5 / Fold change vs veh, SLC1A5 / RFU, SLMO2 / Fold change vs veh, SLMO2 / RFU, ABCC4 / Fold change vs veh, ABCC4 / RFU, LOC101060439 /// RAP1B / Fold change vs veh, LOC101060439 /// RAP1B / RFU, RFX7 / Fold change vs veh, RFX7 / RFU, GTPBP10 / Fold change vs veh, GTPBP10 / RFU, CNEP1R1 / Fold change vs veh, CNEP1R1 / RFU, BIVM-ERCC5 /// ERCC5 / Fold change vs veh, BIVM-ERCC5 /// ERCC5 / RFU, ILF3 / Fold change vs veh, ILF3 / RFU 11762660_at / Fold change /veh 11762660_at / RFU VCAN (11757783_s_at) / Fold change /veh VCAN (11757783_s_at) / RFU DDX43 (11728927_at) / Fold change /veh DDX43 (11728927_at) / RFU KRT8 (11758188_x_at) / Fold change /veh KRT8 (11758188_x_at) / RFU NKD1 (11759106_at) / Fold change /veh NKD1 (11759106_at) / RFU SRD5A1 (11742802_a_at) / Fold change /veh SRD5A1 (11742802_a_at) / RFU TPSAB1 /// TPSB2 (11721975_s_at) / Fold change /veh TPSAB1 /// TPSB2 (11721975_s_at) / RFU GSTM3 (11746129_a_at) / Fold change /veh GSTM3 (11746129_a_at) / RFU IL23R (11737362_x_at) / Fold change /veh IL23R (11737362_x_at) / RFU TMEM51 (11727254_a_at) / Fold change /veh TMEM51 (11727254_a_at) / RFU PIWIL2 (11732686_x_at) / Fold change /veh PIWIL2 (11732686_x_at) / RFU ORM1 (11744905_x_at) / Fold change /veh ORM1 (11744905_x_at) / RFU CCDC152 (11743942_at) / Fold change /veh CCDC152 (11743942_at) / RFU ECM1 (11717891_a_at) / Fold change /veh ECM1 (11717891_a_at) / RFU IL23R (11748794_a_at) / Fold change /veh IL23R (11748794_a_at) / RFU TNFAIP8L3 (11732012_x_at) / Fold change /veh TNFAIP8L3 (11732012_x_at) / RFU MBOAT4 (11741988_at) / Fold change /veh MBOAT4 (11741988_at) / RFU 11764193_at / Fold change /veh 11764193_at / RFU TMEM53 (11763286_at) / Fold change /veh TMEM53 (11763286_at) / RFU MAGEB2 (11727129_at) / Fold change /veh MAGEB2 (11727129_at) / RFU TMEM200A (11744735_a_at) / Fold change /veh TMEM200A (11744735_a_at) / RFU CCDC152 (11751479_a_at) / Fold change /veh CCDC152 (11751479_a_at) / RFU FAM211A (11726209_a_at) / Fold change /veh FAM211A (11726209_a_at) / RFU RGS16 (11746705_a_at) / Fold change /veh RGS16 (11746705_a_at) / RFU VCAN (11755009_s_at) / Fold change /veh VCAN (11755009_s_at) / RFU RHOB (11743442_s_at) / Fold change /veh RHOB (11743442_s_at) / RFU RGS16 (11720943_a_at) / Fold change /veh RGS16 (11720943_a_at) / RFU RGS16 (11720944_at) / Fold change /veh RGS16 (11720944_at) / RFU, VPS4B / Fold change vs veh, VPS4B / RFU, CREB1 / Fold change vs veh, CREB1 / RFU, DNAJC13 / Fold change vs veh, DNAJC13 / RFU, GNAQ / Fold change vs veh, GNAQ / RFU, CDK5R1 / Fold change vs veh, CDK5R1 / RFU, ZRANB3 / Fold change vs veh, ZRANB3 / RFU, CUL4A / Fold change vs veh, CUL4A / RFU, CCNY / Fold change vs veh, CCNY / RFU, UFL1 / Fold change vs veh, UFL1 / RFU, COG3 / Fold change vs veh, COG3 / RFU, DIAPH2 / Fold change vs veh, DIAPH2 / RFU, SKA2 / Fold change vs veh, SKA2 / RFU, AFF3 / Fold change vs veh, AFF3 / RFU, LMF1 / Fold change vs veh, LMF1 / RFU, IPO11 / Fold change vs veh, IPO11 / RFU, DFFB / Fold change vs veh, DFFB / RFU, FOXP1 / Fold change vs veh, FOXP1 / RFU, CARD8 / Fold change vs veh, CARD8 / RFU, STRN3 / Fold change vs veh, STRN3 / RFU, ADK / Fold change vs veh, ADK / RFU, RASSF2 / Fold change vs veh, RASSF2 / RFU, WIPF1 / Fold change vs veh, WIPF1 / RFU, LARP1B / Fold change vs veh, LARP1B / RFU, RASA1 / Fold change vs veh, RASA1 / RFU, RB1 / Fold change vs veh, RB1 / RFU, PPFIA1 / Fold change vs veh, PPFIA1 / RFU, MAT2A / Fold change vs veh, MAT2A / RFU, CCT5 / Fold change vs veh, CCT5 / RFU, WDR92 / Fold change vs veh, WDR92 / RFU, CUX1 / Fold change vs veh, CUX1 / RFU, TTC7A / Fold change vs veh, TTC7A / RFU, TMEM135 / Fold change vs veh, TMEM135 / RFU, DEPTOR / Fold change vs veh, DEPTOR / RFU, CPM / Fold change vs veh, CPM / RFU, DNAJB6 / Fold change vs veh, DNAJB6 / RFU, CACNA2D3 / Fold change vs veh, CACNA2D3 / RFU, DTX4 / Fold change vs veh, DTX4 / RFU, TFCP2 / Fold change vs veh, TFCP2 / RFU, GMCL1 /// GMCL1P1 / Fold change vs veh, GMCL1 /// GMCL1P1 / RFU, AEBP2 / Fold change vs veh, AEBP2 / RFU, SNHG1 /// SNORD22 /// SNORD25 /// SNORD26 /// SNORD27 /// SNORD28 /// SNORD29 /// SNORD31 / Fold change vs veh, SNHG1 /// SNORD22 /// SNORD25 /// SNORD26 /// SNORD27 /// SNORD28 /// SNORD29 /// SNORD31 / Fold change (Aza/veh), C12orf56 (ProbeSet 11735607_a_at) / Fold change (ACY-1035/veh), C12orf56 (ProbeSet 11735607_a_at) / Fold change (Aza/veh), FGFR1OP (ProbeSet 11751329_s_at) / Fold change (ACY-1035/veh), FGFR1OP (ProbeSet 11751329_s_at) / Fold change (Aza/veh), VPS36 (ProbeSet 11739960_a_at) / Fold change (ACY-1035/veh), VPS36 (ProbeSet 11739960_a_at) / RFU SYPL1 (11715823_x_at) / Fold change /veh SYPL1 (11715823_x_at) / RFU IGFBP7 (11715501_s_at) / Fold change /veh IGFBP7 (11715501_s_at) / RFU REEP3 (11722064_at) / Fold change /veh REEP3 (11722064_at) / RFU IGLL1 (11728026_x_at) / Fold change /veh IGLL1 (11728026_x_at): dose or concentration left out as unconfirmed
Details: MV-4-11 cells, 48 hours

For `Nc1ccc(-c2cccs2)cc1NC(=O)c1ccc2c(c1)cc(C1CC1)n2CCN1CCOCC1` [ACY-1035], the “Fold change /veh RGS16 (11720943_a_at)” value was 0.99.
